Data as given in patent publication US20100267561A1, “HERBICIDAL PYRIDAZINONE DERIVATIVES” (priority 2007, published 2010).

Key:
Assay type in all cases: in vivo
[1] = tested on: pigweed (Amaranthus retroflexus); experiment: Test A pre-/postemergence plant response
Summary of the method: (§1)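 Ratings run 0–100 (100 = complete control), assigned visually against untreated controls roughly 10 days after treatment in a greenhouse. Compounds, formulated in non-phytotoxic solvent containing surfactant, were applied as a soil-directed preemergence spray and concurrently postemergence to one- to two-leaf plants 2–10 cm tall.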

[2] = tested on: barnyardgrass (Echinochloa crus-galli); experiment: Test A pre-/postemergence plant response
Summary of the method: as §1

[3] = tested on: large crabgrass (Digitaria sanguinalis); experiment: Test A pre-/postemergence plant response
Summary of the method: as §1

[4] = tested on: morningglory (Ipomoea coccinea); experiment: Test A pre-/postemergence plant response
Summary of the method: as §1

[5] = tested on: wheat (Triticum aestivum); experiment: Test A pre-/postemergence plant response
Summary of the method: as §1

[6] = tested on: velvetleaf (Abutilon theophrasti); experiment: Test A pre-/postemergence plant response
Summary of the method: as §1

[7] = tested on: giant foxtail (Setaria faberi); experiment: Test A pre-/postemergence plant response
Summary of the method: as §1

[8] = tested on: umbrella sedge (Cyperus difformis); experiment: Test B flooded paddy test plant response
Summary of the method: (§2)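 Step one: raise plants to 2 leaves. Step two: flood pots 3 cm over the soil and apply compound into the water, keeping this depth. Step three: after 13–15 greenhouse days, score visually versus controls, 0–100, where 100 means complete control.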

[9] = tested on: barnyardgrass (Echinochloa crus-galli); experiment: Test B flooded paddy test plant response
Summary of the method: as §2

[10] = tested on: ducksalad (Heteranthera limosa); experiment: Test B flooded paddy test plant response
Summary of the method: as §2

[11] = Postemergence, 31 g ai/ha, 0 to 100 scale, 0 no effect, 100 complete control
[12] = Postemergence, 125 g ai/ha, 0 to 100 scale, 0 no effect, 100 complete control
[13] = Preemergence, 31 g ai/ha, 0 to 100 scale, 0 is no effect, 100 is complete control
[14] = Preemergence, 125 g ai/ha, 0 to 100 scale (0 no effect, 100 complete control)
[15] = Flood (flooded paddy test), 62 g ai/ha, scale 0 to 100, 0 no effect, 100 complete control
[16] = Flood (flooded paddy test), 125 g ai/ha, scale 0 to 100, 0 no effect, 100 complete control
[17] = Flood (flooded paddy test), 250 g ai/ha, scale 0 to 100, 0 no effect, 100 complete control
[18] = Flood, 31 g ai/ha, scale 0 to 100

Row | Structure (SMILES) | Plant response rating, Pigweed [1, 11] | Plant response rating, Pigweed [1, 12] | Plant response rating, Pigweed [1, 13] | Plant response rating, Pigweed [1, 14] | Plant response rating, Barnyardgrass [2, 11] | Plant response rating, Barnyardgrass [2, 12] | Plant response rating, Barnyardgrass [2, 13] | Plant response rating, Barnyardgrass [2, 14] | Plant response rating, Crabgrass, Large [3, 11] | Plant response rating, Crabgrass, Large [3, 12] | Plant response rating, Crabgrass, Large [3, 13] | Plant response rating, Crabgrass, Large [3, 14] | Plant response rating, Morningglory [4, 11] | Plant response rating, Morningglory [4, 12] | Plant response rating, Morningglory [4, 13] | Plant response rating, Morningglory [4, 14] | Plant response rating, Wheat [5, 11] | Plant response rating, Wheat [5, 12] | Plant response rating, Wheat [5, 13] | Plant response rating, Wheat [5, 14] | further results
1 | Cc1ccc(-c2ccc(Cl)cc2)cc1-c1c(O)cnn(C)c1=O [Compound 46] | 0 | 0 | 0 | 0 | 0 | 50 | 40 | 100 | 0 | 40 | 10 | 90 | 0 | 0 | 0 | 0 | 0 | 30 | 0 | 50 | Plant response rating, Velvetleaf [6, 11]: 0; Plant response rating, Velvetleaf [6, 12]: 0; Plant response rating, Velvetleaf [6, 13]: 0; Plant response rating, Velvetleaf [6, 14]: 0; Plant response rating, Foxtail, Giant [7, 11]: 20; Plant response rating, Foxtail, Giant [7, 12]: 60; Plant response rating, Foxtail, Giant [7, 13]: 50; Plant response rating, Foxtail, Giant [7, 14]: 100; Plant response rating, Sedge, Umbrella [8, 15]: 50; Plant response rating, Sedge, Umbrella [8, 16]: 60; Plant response rating, Sedge, Umbrella [8, 17]: 75; Plant response rating, Sedge, Umbrella [8, 18]: 40; Plant response rating, Barnyardgrass [9, 15]: 0; Plant response rating, Barnyardgrass [9, 16]: 30; Plant response rating, Barnyardgrass [9, 17]: 40; Plant response rating, Barnyardgrass [9, 18]: 0; Plant response rating, Ducksalad [10, 15]: 30; Plant response rating, Ducksalad [10, 16]: 45; Plant response rating, Ducksalad [10, 17]: 85
2 | Cc1cc(-c2ccc(Cl)cc2)nn1-c1c(OS(=O)(=O)c2cccc3ccccc23)cnn(C)c1=O [Compound 47] | 0 | 0 | 0 | 0 | 0 | 40 | 20 | 80 | 10 | 50 | 10 | 90 | 0 | 0 | 0 | 0 | 0 | 10 | 0 | 40 | Plant response rating, Velvetleaf [6, 11]: 0; Plant response rating, Velvetleaf [6, 12]: 0; Plant response rating, Velvetleaf [6, 13]: 0; Plant response rating, Velvetleaf [6, 14]: 0; Plant response rating, Foxtail, Giant [7, 11]: 10; Plant response rating, Foxtail, Giant [7, 12]: 60; Plant response rating, Foxtail, Giant [7, 13]: 70; Plant response rating, Foxtail, Giant [7, 14]: 90; Plant response rating, Sedge, Umbrella [8, 15]: 0; Plant response rating, Sedge, Umbrella [8, 16]: 0; Plant response rating, Sedge, Umbrella [8, 17]: 0; Plant response rating, Sedge, Umbrella [8, 18]: 0; Plant response rating, Barnyardgrass [9, 15]: 0; Plant response rating, Barnyardgrass [9, 16]: 0; Plant response rating, Barnyardgrass [9, 17]: 0; Plant response rating, Barnyardgrass [9, 18]: 0; Plant response rating, Ducksalad [10, 15]: 0; Plant response rating, Ducksalad [10, 16]: 0; Plant response rating, Ducksalad [10, 17]: 0; Plant response rating, Ducksalad [10, 18]: 0
3 | Cc1cc(-c2ccc(Cl)cc2)nn1-c1c(OS(=O)(=O)C(C)C)cnn(C)c1=O [Compound 50] | 0 | 0 | 0 | 0 | 0 | 70 | 10 | 100 | 0 | 40 | 50 | 90 | 0 | 0 | 0 | 0 | 0 | 20 | 0 | 50 | Plant response rating, Velvetleaf [6, 11]: 0; Plant response rating, Velvetleaf [6, 12]: 0; Plant response rating, Velvetleaf [6, 13]: 0; Plant response rating, Velvetleaf [6, 14]: 0; Plant response rating, Foxtail, Giant [7, 11]: 0; Plant response rating, Foxtail, Giant [7, 12]: 60; Plant response rating, Foxtail, Giant [7, 13]: 70; Plant response rating, Foxtail, Giant [7, 14]: 90; Plant response rating, Sedge, Umbrella [8, 15]: 0; Plant response rating, Sedge, Umbrella [8, 16]: 0; Plant response rating, Sedge, Umbrella [8, 17]: 0; Plant response rating, Sedge, Umbrella [8, 18]: 0; Plant response rating, Barnyardgrass [9, 15]: 0; Plant response rating, Barnyardgrass [9, 16]: 0; Plant response rating, Barnyardgrass [9, 17]: 0; Plant response rating, Barnyardgrass [9, 18]: 0; Plant response rating, Ducksalad [10, 15]: 0; Plant response rating, Ducksalad [10, 16]: 0; Plant response rating, Ducksalad [10, 17]: 0; Plant response rating, Ducksalad [10, 18]: 0
4 | Cc1cc(-c2ccc(Cl)cc2)nn1-c1c(OS(=O)(=O)c2ccc(Cl)s2)cnn(C)c1=O [Compound 55] | 0 | 0 | 0 | 0 | 0 | 30 | 0 | 80 | 10 | 60 | 20 | 80 | 0 | 0 | 0 | 0 | 0 | 30 | 0 | 50 | Plant response rating, Velvetleaf [6, 11]: 0; Plant response rating, Velvetleaf [6, 12]: 0; Plant response rating, Velvetleaf [6, 13]: 0; Plant response rating, Velvetleaf [6, 14]: 0; Plant response rating, Foxtail, Giant [7, 11]: 20; Plant response rating, Foxtail, Giant [7, 12]: 70; Plant response rating, Foxtail, Giant [7, 13]: 80; Plant response rating, Foxtail, Giant [7, 14]: 90; Plant response rating, Sedge, Umbrella [8, 15]: 70; Plant response rating, Sedge, Umbrella [8, 16]: 75; Plant response rating, Sedge, Umbrella [8, 17]: 80; Plant response rating, Sedge, Umbrella [8, 18]: 45; Plant response rating, Barnyardgrass [9, 15]: 0; Plant response rating, Barnyardgrass [9, 16]: 0; Plant response rating, Barnyardgrass [9, 17]: 65; Plant response rating, Barnyardgrass [9, 18]: 0; Plant response rating, Ducksalad [10, 15]: 0; Plant response rating, Ducksalad [10, 16]: 0; Plant response rating, Ducksalad [10, 17]: 75; Plant response rating, Ducksalad [10, 18]: 0
